From patent US12252524B2, “GIP/GLP1 co-agonist compounds” (Eli Lilly and Company, priority 2018, dated 2025)
Numbered stars: 1 amine (or outer) side, 2 acyl side, 3 side chain; on linkers, the order of the positions; unused ones are H or OH. Square brackets hold non-standard residues; d marks the D form. Side chains are listed from the residue outwards. Peptide text beside a SMILES is read from it. * marks the point of attachment. C20 diacid = O=C(O)CCCCCCCCCCCCCCCCCCC(=O)*; C18 diacid = O=C(O)CCCCCCCCCCCCCCCCC(=O)*; γGlu = O=C(O)[C@H](CCC(=O)[*:2])N[*:1]; AEEA = NCCOCCOCC(=O)O; Aib = CC(C)(N)C(=O)O

Tests used:
[1] = biological target: T1, human Gcg receptor (Homo sapiens, UniProt P47871); assay: [125I]-Glucagon binding (SPA), human Gcg receptor; conditions: read-out: hGLcgR Ki, nM (SEM, n)
T1 construct: expressed in transfected cells; crude membranes
T1 sequence (P47871 26-477): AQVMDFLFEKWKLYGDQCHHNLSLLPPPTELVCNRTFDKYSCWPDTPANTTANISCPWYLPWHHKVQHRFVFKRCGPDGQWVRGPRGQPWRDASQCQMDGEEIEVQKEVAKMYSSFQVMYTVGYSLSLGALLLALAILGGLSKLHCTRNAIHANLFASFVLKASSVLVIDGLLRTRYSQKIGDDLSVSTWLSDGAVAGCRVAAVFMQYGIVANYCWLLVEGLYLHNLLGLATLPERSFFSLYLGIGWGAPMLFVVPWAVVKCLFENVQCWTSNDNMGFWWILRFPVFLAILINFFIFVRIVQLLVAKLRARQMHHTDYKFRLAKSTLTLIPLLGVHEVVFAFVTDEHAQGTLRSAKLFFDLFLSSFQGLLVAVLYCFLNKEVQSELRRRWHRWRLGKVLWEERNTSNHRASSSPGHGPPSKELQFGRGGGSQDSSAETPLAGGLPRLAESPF
Procedure, shortened: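 Scintillation counts are taken after membranes and WGA beads incubate and settle for 12 hours at room temperature. Buffer is 25 mM HEPES, pH 7.4, with CaCl2, MgCl2, bacitracin and Tween-20. Ki values, from four-parameter IC50 fits, are geometric means over independent days.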

[2] = biological target: T2, human GIP receptor (Homo sapiens, UniProt P48546); assay: [125I]-GIP binding (SPA), human GIP receptor; conditions: read-out: hGIPR Ki, nM (SEM, n)
T2 construct: expressed in transfected cells; crude membranes
T2 sequence (P48546 22-466): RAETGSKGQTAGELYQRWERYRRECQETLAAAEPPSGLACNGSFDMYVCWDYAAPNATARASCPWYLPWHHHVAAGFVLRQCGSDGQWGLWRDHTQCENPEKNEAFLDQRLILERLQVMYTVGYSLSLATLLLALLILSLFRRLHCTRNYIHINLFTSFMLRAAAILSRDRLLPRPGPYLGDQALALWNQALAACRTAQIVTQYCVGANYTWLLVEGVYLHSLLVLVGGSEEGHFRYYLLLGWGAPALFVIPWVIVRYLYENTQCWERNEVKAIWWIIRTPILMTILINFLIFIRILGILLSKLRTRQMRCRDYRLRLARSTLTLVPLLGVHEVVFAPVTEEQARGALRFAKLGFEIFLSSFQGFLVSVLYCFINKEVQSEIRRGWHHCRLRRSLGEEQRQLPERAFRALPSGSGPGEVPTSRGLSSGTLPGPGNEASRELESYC

[3] = biological target: human GLP-1 receptor (GLP-1R) (Homo sapiens, UniProt P43220); assay: cAMP pharmacological functional assay in presence of casein, hGLP-1R; assay type: cell-based; conditions: HEK293 cells expressing hGLP-1R, 0.1% Casein, geometric mean; read-out: hGLP1R cAMP Rel EC50 nM (SEM, n)
Chain of human GLP-1 receptor (GLP-1R) (P43220 24-463): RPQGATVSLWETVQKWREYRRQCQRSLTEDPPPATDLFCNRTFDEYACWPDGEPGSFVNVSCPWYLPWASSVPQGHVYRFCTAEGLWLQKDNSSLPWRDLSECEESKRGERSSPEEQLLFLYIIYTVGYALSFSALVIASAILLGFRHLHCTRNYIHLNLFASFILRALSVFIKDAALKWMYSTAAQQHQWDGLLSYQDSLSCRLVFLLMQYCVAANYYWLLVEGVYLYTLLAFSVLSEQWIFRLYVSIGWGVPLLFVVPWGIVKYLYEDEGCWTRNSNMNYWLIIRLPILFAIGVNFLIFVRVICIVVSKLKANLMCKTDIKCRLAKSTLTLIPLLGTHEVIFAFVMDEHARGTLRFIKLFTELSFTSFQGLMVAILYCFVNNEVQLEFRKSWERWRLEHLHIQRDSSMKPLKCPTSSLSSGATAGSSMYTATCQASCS

[4] = biological target: T3, gastric inhibitory peptide receptor (GIPR) (Homo sapiens, UniProt P48546); assay: cAMP pharmacological functional assay in presence of casein, hGIPR; assay type: cell-based; conditions: HEK293 cells expressing hGIPR, 0.1% Casein, geometric mean; read-out: hGIPR cAMP Rel EC50 nM (SEM, n)
T3 sequence (P48546 22-466): T2 sequence (P48546 22-466)

[5] = biological target: human GLP-1R (Homo sapiens, UniProt P43220); assay: [125I]-GLP-1 binding (SPA), human GLP-1 receptor; parameters: expressed in transfected cells; crude membranes; conditions: read-out: hGLP1R Ki, (nM) (SEM, n)
Chain of human GLP-1R (P43220 24-463): as above
Procedure, shortened: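 Frozen cell pellets are lysed on ice in hypotonic Tris buffer, pH 7.5, homogenized, and centrifuged to a membrane pellet resuspended at about 1 to 3 mg/mL. Binding is then measured in HEPES-based buffer at pH 7.4, and curves are fitted to give IC50 and Ki.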

| SMILES | Ki [1] [nM] | Ki [2] [nM] | EC50 [3] [nM] | EC50 [4] [nM] | Ki [5] [nM] |
| --- | --- | --- | --- | --- | --- |
| CC[C@H](C)[C@H](NC(=O)[C@H](CC(C)C)NC(=O)[C@H](Cc1ccc(O)cc1)NC(=O)[C@H](CCC(=O)O)NC(=O)[C@@H](NC(=O)[C@H](Cc1ccccc1)NC(=O)[C@H](C)NC(=O)C(C)(C)NC(=O)[C@H](CCC(N)=O)NC(=O)[C@H](C)NC(=O)[C@H](CCCCNC(=O)COCCOCCNC(=O)COCCOCCNC(=O)CC[C@H](NC(=O)CCCCCCCCCCCCCCCCCCC(=O)O)C(=O)O)NC(=O)[C@H](CCCCN)NC(=O)[C@H](CC(=O)O)NC(=O)[C@H](CC(C)C)NC(=O)[C@H](CC(C)C)NC(=O)[C@@H](NC(=O)[C@H](CO)NC(=O)[C@H](C)NC(=O)[C@H](CC(=O)O)NC(=O)[C@H](CO)NC(=O)[C@@H](NC(=O)[C@H](Cc1ccccc1)NC(=O)[C@@H](NC(=O)CNC(=O)[C@H](CCC(=O)O)NC(=O)C(C)(C)NC(=O)[C@@H](N)Cc1ccc(O)cc1)[C@@H](C)O)[C@@H](C)O)[C@@H](C)CC)[C@@H](C)CC)C(=O)N[C@@H](CCC(=O)O)C(=O)NCC(=O)NCC(=O)N1CCC[C@H]1C(=O)N[C@@H](CO)C(=O)N[C@@H](CO)C(=O)NCC(=O)N[C@@H](C)C(=O)N1CCC[C@H]1C(=O)N1CCC[C@H]1C(=O)N1CCC[C@H]1C(=O)N[C@@H](CO)C(N)=O [Example 85] (H-Y[Aib]EGTFTSDASILLDKK([AEEA-AEEA-γGlu-C20 diacid])AQ[Aib]AFIEYLIEGGPSSGAPPPS-NH2) | > 894 | 0.621 | 0.0518 | 1.67 | 1.87 |
| CC[C@H](C)[C@H](NC(=O)[C@H](Cc1ccccc1)NC(=O)[C@H](C)NC(=O)C(C)(C)NC(=O)[C@H](CCC(N)=O)NC(=O)[C@H](C)NC(=O)[C@H](CCCCNC(=O)COCCOCCNC(=O)COCCOCCNC(=O)CC[C@H](NC(=O)CCCCCCCCCCCCCCCCCCC(=O)O)C(=O)O)NC(=O)[C@H](CCCCN)NC(=O)[C@H](CC(=O)O)NC(=O)[C@H](CC(C)C)NC(=O)[C@](C)(CC(C)C)NC(=O)[C@@H](NC(=O)[C@H](CO)NC(=O)[C@H](Cc1ccc(O)cc1)NC(=O)[C@H](CC(=O)O)NC(=O)[C@H](CO)NC(=O)[C@@H](NC(=O)[C@H](Cc1ccccc1)NC(=O)[C@@H](NC(=O)CNC(=O)[C@H](CCC(=O)O)NC(=O)C(C)(C)NC(=O)[C@@H](N)Cc1ccc(O)cc1)[C@@H](C)O)[C@@H](C)O)[C@@H](C)CC)C(=O)N[C@@H](CCC(=O)O)C(=O)N[C@@H](Cc1ccc(O)cc1)C(=O)N[C@@](C)(CC(C)C)C(=O)N[C@H](C(=O)N[C@@H](CCC(=O)O)C(=O)NCC(=O)NCC(=O)N1CCC[C@H]1C(=O)N[C@@H](CO)C(=O)N[C@@H](CO)C(=O)NCC(=O)N[C@@H](C)C(=O)N1CCC[C@H]1C(=O)N1CCC[C@H]1C(=O)N1CCC[C@H]1C(=O)N[C@@H](CO)C(N)=O)[C@@H](C)CC [Example 75] | 283 | 0.103 | 1.49 | 0.214 | 24.4 |
| CC[C@H](C)[C@H](NC(=O)[C@H](CCCCN)NC(=O)[C@H](CC(=O)O)NC(=O)[C@H](CC(C)C)NC(=O)[C@H](CC(C)C)NC(=O)[C@@H](NC(=O)[C@H](CO)NC(=O)[C@H](Cc1ccc(O)cc1)NC(=O)[C@H](CC(=O)O)NC(=O)[C@H](CO)NC(=O)[C@@H](NC(=O)[C@H](Cc1ccccc1)NC(=O)[C@@H](NC(=O)CNC(=O)[C@H](CCC(=O)O)NC(=O)C(C)(C)NC(=O)[C@@H](N)Cc1ccc(O)cc1)[C@@H](C)O)[C@@H](C)O)[C@@H](C)CC)C(=O)N[C@@H](C)C(=O)N[C@@H](CCCCNC(=O)COCCOCCNC(=O)COCCOCCNC(=O)CC[C@H](NC(=O)CCCCCCCCCCCCCCCCCCC(=O)O)C(=O)O)C(=O)NC(C)(C)C(=O)N[C@@H](C)C(=O)N[C@@H](Cc1ccccc1)C(=O)N[C@H](C(=O)N[C@@H](CCC(=O)O)C(=O)N[C@@H](Cc1ccc(O)cc1)C(=O)N[C@@H](CC(C)C)C(=O)N[C@H](C(=O)N[C@@H](CCC(=O)O)C(=O)NCC(=O)NCC(=O)N1CCC[C@H]1C(=O)N[C@@H](CO)C(=O)N[C@@H](CO)C(=O)NCC(=O)N[C@@H](C)C(=O)N1CCC[C@H]1C(=O)N1CCC[C@H]1C(=O)N1CCC[C@H]1C(=O)N[C@@H](CO)C(N)=O)[C@@H](C)CC)[C@@H](C)CC [Example 31] (H-Y[Aib]EGTFTSDYSILLDKIAK([AEEA-AEEA-γGlu-C20 diacid])[Aib]AFIEYLIEGGPSSGAPPPS-NH2) | 290 | 0.0275 | 0.891 | 0.388 | 6.58 |
| CC[C@H](C)[C@H](NC(=O)[C@H](CCCCN)NC(=O)[C@H](CC(=O)O)NC(=O)[C@H](CC(C)C)NC(=O)[C@H](CC(C)C)NC(=O)[C@@H](NC(=O)[C@H](CO)NC(=O)[C@H](Cc1ccc(O)cc1)NC(=O)[C@H](CC(=O)O)NC(=O)[C@H](CO)NC(=O)[C@@H](NC(=O)[C@H](Cc1ccccc1)NC(=O)[C@@H](NC(=O)CNC(=O)[C@H](CCC(=O)O)NC(=O)C(C)(C)NC(=O)[C@@H](N)Cc1ccc(O)cc1)[C@@H](C)O)[C@@H](C)O)[C@@H](C)CC)C(=O)N[C@@H](C)C(=O)N[C@@H](CCC(N)=O)C(=O)NC(C)(C)C(=O)N[C@@H](C)C(=O)N[C@@H](Cc1ccccc1)C(=O)N[C@H](C(=O)N[C@@H](CCC(=O)O)C(=O)N[C@@H](Cc1ccc(O)cc1)C(=O)N[C@@H](CC(C)C)C(=O)N[C@H](C(=O)N[C@@H](CCC(=O)O)C(=O)NCC(=O)NCC(=O)N1CCC[C@H]1C(=O)N[C@@H](CO)C(=O)N[C@@H](CO)C(=O)NCC(=O)N[C@@H](CCCCNC(=O)COCCOCCNC(=O)COCCOCCNC(=O)CC[C@H](NC(=O)CCCCCCCCCCCCCCCCCCC(=O)O)C(=O)O)C(=O)N1CCC[C@H]1C(=O)N1CCC[C@H]1C(=O)N1CCC[C@H]1C(=O)N[C@@H](CO)C(N)=O)[C@@H](C)CC)[C@@H](C)CC [Example 44] (H-Y[Aib]EGTFTSDYSILLDKIAQ[Aib]AFIEYLIEGGPSSGK([AEEA-AEEA-γGlu-C20 diacid])PPPS-NH2) | 121 | 0.0516 | 0.752 | 0.128 | 10.6 |
| CC[C@H](C)[C@H](NC(=O)[C@H](CC(C)C)NC(=O)[C@H](Cc1ccc(O)cc1)NC(=O)[C@H](CCC(=O)O)NC(=O)[C@@H](NC(=O)[C@H](Cc1ccccc1)NC(=O)[C@H](C)NC(=O)[C@H](Cc1c[nH]cn1)NC(=O)[C@H](CCC(N)=O)NC(=O)[C@H](C)NC(=O)[C@H](CCCCNC(=O)COCCOCCNC(=O)COCCOCCNC(=O)CC[C@H](NC(=O)CCCCCCCCCCCCCCCCC(=O)O)C(=O)O)NC(=O)[C@H](CCCCN)NC(=O)[C@H](CC(=O)O)NC(=O)[C@H](CC(C)C)NC(=O)[C@H](CC(C)C)NC(=O)[C@@H](NC(=O)[C@H](CO)NC(=O)[C@H](Cc1ccc(O)cc1)NC(=O)[C@H](CC(=O)O)NC(=O)[C@H](CO)NC(=O)[C@@H](NC(=O)[C@H](Cc1ccccc1)NC(=O)[C@@H](NC(=O)CNC(=O)[C@H](CCC(=O)O)NC(=O)C(C)(C)NC(=O)[C@@H](N)Cc1ccc(O)cc1)[C@@H](C)O)[C@@H](C)O)[C@@H](C)CC)[C@@H](C)CC)C(=O)N[C@@H](CCC(=O)O)C(=O)NCC(=O)NCC(N)=O [Example 295] (H-Y[Aib]EGTFTSDYSILLDKK([AEEA-AEEA-γGlu-C18 diacid])AQHAFIEYLIEGG-NH2) | > 1000 | 0.181 | 0.116 | 0.281 | 4.12 |
| CC[C@H](C)[C@H](NC(=O)[C@H](CC(C)C)NC(=O)[C@H](Cc1ccc(O)cc1)NC(=O)[C@H](CCC(=O)O)NC(=O)[C@@H](NC(=O)[C@H](Cc1ccccc1)NC(=O)[C@H](C)NC(=O)C(C)(C)NC(=O)[C@H](CCC(N)=O)NC(=O)[C@H](C)NC(=O)[C@H](CCCCNC(=O)COCCOCCNC(=O)COCCOCCNC(=O)CC[C@H](NC(=O)CCCCCCCCCCCCCCCCCCC(=O)O)C(=O)O)NC(=O)[C@H](CCCCN)NC(=O)[C@H](CC(=O)O)NC(=O)[C@H](CC(C)C)NC(=O)[C@H](CC(C)C)NC(=O)[C@@H](NC(=O)[C@H](CO)NC(=O)[C@H](Cc1ccc(O)cc1)NC(=O)[C@H](CC(=O)O)NC(=O)[C@H](CO)NC(=O)[C@@H](NC(=O)[C@H](Cc1ccccc1)NC(=O)[C@@H](NC(=O)CNC(=O)[C@H](CCCC(=O)O)NC(=O)C(C)(C)NC(=O)[C@@H](N)Cc1ccc(O)cc1)[C@@H](C)O)[C@@H](C)O)[C@@H](C)CC)[C@@H](C)CC)C(=O)N[C@@H](CCC(=O)O)C(=O)NCC(=O)NCC(=O)N1CCC[C@H]1C(=O)N[C@@H](CO)C(=O)N[C@@H](CO)C(=O)NCC(=O)N[C@@H](C)C(=O)N1CCC[C@H]1C(=O)N1CCC[C@H]1C(=O)N1CCC[C@H]1C(=O)N[C@@H](CO)C(N)=O [Example 89] | 324 | 0.045 | 0.335 | 0.119 | 2.64 |
